Test system: PBMC
Assay: ELISPOT (IFNγ, IL-5, IL-10, IL-17, IL-21) of PBMC expanded 14 days with Bla g extract, then stimulated with peptides or peptide pools
Assay type: cell-based, human
Parameters: key to Average Magnitude of Response: spot forming cells (SFC) per 10^6 PBMC; Response Rate per Subject: unit not given here
Settings: AR
Procedure: PBMC Isolation and Cell Cultures: PBMC (peripheral blood mononuclear cells) were isolated from 450 mL (one unit) of blood by density gradient centrifugation as described and cryopreserved. For in vitro expansion of PBMC for peptide screening, cells were cultured in RPMI1640 (Omega Scientific)+5% human AB serum (Gemini Bioscience), GlutaMAX (Gibco), and penicillin/streptomycin (Omega Scientific) at 2×10^6 per mL, stimulated with 10 ug/mL Bla g extract (Greer), and incubated at 37° C. in 5% CO2. Every three days, IL-2 and IL-7 (10 U/mL) were added to the cultures. Cells were harvested for peptide screening at day 14.
ELISPOT Assays: Production of IFNγ, IL-5, IL-17, IL-10, and IL-21 (as representative of TH1, TH2, TH17, TR1, and […], respectively) in response to peptide stimulation was measured by ELISPOT as described previously. […] In brief, 1×10^5 cells per well were incubated with peptide, peptide pool, or Bla g extract (10, 5, and 10 ug/ml, respectively) on anti-lymphokine antibody coated ELISPOT plates (Millipore #MSIPS4510) for 22 hours. Subsequently, secondary anti-lymphokine antibodies were added and incubated for 2 hours, washed, and avidin-peroxidase complex added for 1 hour. Plates were washed and spots developed with 3-amino-9-ethylcarbazole (Sigma #A6926) and Vector Blue (Vector #SK-5300) for IFNγ/IL-5 and IL-10/IL-17 dual plates or TMB (Sigma #T0565) for single IL-21. Criteria for peptide pool positivity were at least 100 spot forming cells (SFC) per 10^6 PBMC, p<0.05, and stimulation index≥2. Criteria for peptide positivity were identical except with a threshold of 20 SFCs.
We synthetized overlapping peptide sets of 15 amino acids in length overlapping by 10 residues and covering the entire sequence of known Bla g Allergens, i.e. Bla g 1-7, 9 and 11, referred from hereafter collectively as BLAGA. A total of 809 BLAGA peptides were arranged in pools, encompassing on average 20 peptides.
To assess T cell reactivity, we utilized a strategy applied to the definition of epitopes from various allergen sources^15,16 utilizing in vitro stimulation with allergen extracts. Here, PBMC from each subject were stimulated in vitro with Bla g extract. After 14 days, pools of overlapping 15-mer peptides from the BLAGA were tested for responses, and positive pools deconvoluted to identify the specific epitopes. As readout, we utilized ELISPOT assays specific for IL-5, IFNγ, IL-10, IL-17 and IL-21, chosen as representative of TH2, TH1, TR1, TH17 and TFH reactivity, respectively.

Row | Substance | % (percentage of subjects responding to given antigen) | SFC (mean magnitude of response)
1 | Triosephosphate isomerase [TPI] | 6% | 13 SFC

Same assay, conditions: Asthmatic (combines IA, MMA, SA)

Row | Substance | % (percentage of subjects responding to given antigen) | SFC (mean magnitude of response)
2 | Triosephosphate isomerase [TPI] | 11% | 31 SFC

Same assay, conditions: Controls

Row | Substance | % (percentage of subjects responding to given antigen) | SFC (mean magnitude of response)
3 | Triosephosphate isomerase [TPI] | 2% | 17 SFC

Same assay, conditions: IA

Row | Substance | % (percentage of subjects responding to given antigen) | SFC (mean magnitude of response)
4 | Triosephosphate isomerase [TPI] | 6% | 6 SFC

Same assay, conditions: MMA

Row | Substance | % (percentage of subjects responding to given antigen) | SFC (mean magnitude of response)
5 | Triosephosphate isomerase [TPI] | 11% | 83 SFC

Same assay, conditions: SA

Row | Substance | % (percentage of subjects responding to given antigen) | SFC (mean magnitude of response)
6 | Triosephosphate isomerase [TPI] | 23% | 54 SFC

Same assay, conditions: non-redundant epitopes; sensitized donors

Row | Substance | Average Magnitude of Response | Response Rate per Subject
7 | RHNSAYKLHFNAFEY | 44.0 | 1.4
8 | VNQHKKAIEEDLKHF | 4.0 | 2.9
9 | STSLVKAHSMRNSAS | 19.9 | 4.3
10 | FQINLDFKNHNGFIR | 52.0 | 1.4
11 | NYAIVEGCPAAANGH (listed as Blattella germanica) | 64.6 | 1.4
12 | SSLFQVANQYTGILY | 50.2 | 10.0
13 | NTTFSNASAVIQEFL | 4.2 | 5.7
14 | EVVKANGGYLAAGKL | 4.6 | 5.7
15 | DKKVYRVFESTVTGR | 4.4 | 2.9
16 | CATDTLANEDCFRHE | 3.2 | 2.9
17 | AQIQVVIHLDEQYIY | 4.6 | 5.7
18 | TIPYYTKKFDEVVKA (listed as Blattella germanica) | 311.6 | 11.4
19 | QTHQSVAISRYLGKQ | 4.3 | 4.3
20 | SVNATVVRLQSWQSE | 4.1 | 2.9
21 | VYEVAIPDRLTLRVE | 3.4 | 2.9
22 | AAVAYLQSDEFETIV | 3.2 | 1.4
23 | RWRQIFNMVGFRNAV (listed as Blattella germanica) | 61.7 | 11.4
24 | KCHLTNIACLLHNKY | 22.6 | 5.7
25 | KTPVLEIDGKQTHQS (listed as Blattella germanica) | 57.0 | 14.3
26 | MGVQKFWAFDNTTFS | 7.3 | 7.1
27 | IAGPVSEVTALNRQI | 3.3 | 2.9
28 | RDMVRRCNNVGIRIY | 5.2 | 5.7

Row | Substance | Average Magnitude of Response | Response Rate per Subject
29 | KAIFIKCDVTNIPEF | 9.3 | 7.1
30 | IDDIIAILPVDDLYA | 6.6 | 2.9
31 | QVYRRLVTAVNDIEK | 44.1 | 5.7
32 | SHVHFRFVPSAAVEF | 3.3 | 1.4
33 | LTVFDSTSCNVVVAS | 4.0 | 2.9
34 | QTLFLLLLLLAAVSA | 3.2 | 1.4
35 | SPYFVTNTEKMITEF | 13.6 | 2.9
36 | TKKFDEVVKANGGYL | 24.3 | 4.3
37 | FYTEFDMENNRVGFA | 11.3 | 2.9
38 | ALNSIQQFISSEMVE | 4.4 | 4.3
39 | GEPIRFLLSYGEKDF | 3.3 | 2.9
40 | GVTPVFYNMVKQGLV | 20.8 | 1.4
41 | VAISRYLGKQFGLSG (listed as Blattella germanica) | 94.9 | 8.6
42 | LKNYQLDSELRIKAF | 3.2 | 1.4
43 | DVLDIGGLKVQKQTF | 3.5 | 2.9
44 | GEKDFEDYRFQEGDW | 12.0 | 8.6
45 | LGHTVCLSGFMGIDL | 3.2 | 2.9
46 | IVINNAGILNDEKWE | 10.8 | 4.3
47 | DENSKQKKWDPLKKE | 10.3 | 5.7
48 | KVIDLLLSLYLDQNE | 3.6 | 7.1
49 | IRFSVRRFHPKLGDK | 5.8 | 2.9
50 | LNAIEFINNIHDLLG | 8.8 | 2.9

Row | Substance | Average Magnitude of Response | Response Rate per Subject
51 | IQGKFGLDATAVGDE | 6.9 | 1.4
52 | GASILTYKTSKLYKM | 19.3 | 7.1
53 | IHENLIVTSPFRPWW | 9.3 | 2.9
54 | VVRLQSWQSEMLRMN | 6.4 | 2.9
55 | HMAKEDLVANQPNLK (listed as Blattella germanica) | 68.8 | 4.3
56 | KFTIDYNDKGKAFSA | 32.0 | 11.4
57 | IRGRTKFEGNKFTID (listed as Blattella germanica) | 75.5 | 5.7
58 | YFVAILDYLNHMAKE (listed as Blattella germanica) | 137.2 | 15.7
59 | ERYQLVSYNLNSRSG | 3.4 | 1.4
60 | DPSIHVLKMVAELTH | 3.4 | 1.4
61 | ARYFLERLSNDLPDV | 3.5 | 2.9
62 | QPNLKALREKVLGLP | 6.5 | 5.7
63 | KAHSMRNSASMDLSS | 16.4 | 4.3
64 | HGRTFSSLFQVANQY | 8.4 | 4.3
65 | LIPVDQIIAIATDYL | 9.8 | 1.4
66 | LWEINMIKAIISQLQ | 3.5 | 2.9
67 | GHSHFVSDVVLSSDG | 9.6 | 2.9
68 | KLYKMAVAFMLAYPY | 15.8 | 7.1
69 | VFIGKFYTEFDMENN | 4.0 | 2.9
70 | KKLQFTYSESLDLDD | 4.2 | 2.9
71 | HYQFDSIHKFEFASK | 24.4 | 1.4
72 | KNMTYVNTSLVLAFS | 8.4 | 2.9

Same assay, conditions: sensitized subjects; 2-week extract stimulation

Row | Substance | T cell reactivity (cytokine release) to NBGA, in words
73 | Triosephosphate isomerase [TPI] | Significant reactivity
